Laboratory results reported in patent US7109193B2, “Tricyclic diazepines tocolytic oxytocin receptor antagonists” (Wyeth, priority 2001, dated 2006).

target: T1, human vasopressin V2 receptor subtype (Homo sapiens, UniProt P30518); assay: Vasopressin binding in Chinese Hamster Ovary cell membranes expressing human vasopressin V2 subtype receptors; conditions: 100 nM, CHO cell membranes, [3H]arginine vasopressin, values without parentheses
T1 construct: host or cells: CHO cells (pZeoSV vector)
Experimental: Vasopressin Binding in Chinese Hamster Ovary Cell Membranes Expressing Human Vasopressin V2 Subtype Receptors
Chinese Hamster Ovary (CHO) cells stably transfected with the human V2 subtype receptors were obtained from M. Thibonnier, Case Western Reserve University School of Medicine, Cleveland, Ohio.
A. Passaging and Amplification of Cells:
The trypsin is removed by aspiration and the cells dislodged by tapping. Cell Culture medium (e.g. 30 mL for 1:30 split) is immediately added and mixed well to inactivate trypsin. 1 mL of detached cells is added to new culture flasks containing fresh Cell Culture medium (e.g. into 25 mL per T-150 flask), and mixed gently. The cells are incubated at 37° C. in 5% CO2. The medium is changed at 3 to 4 day interval (or as appropriate). […] All steps are done under sterile conditions. B. Membrane Preparation: The cells are washed twice gently with Hank's Balanced Salt solution (e.g. use 10 mL per T-150 flask). […] The contents are transferred to centrifuge tubes (50 mL) kept in ice bath. All subsequent steps are done at 4° C. The tubes are centrifuged at 300×g for 15 min (1380 rpm on SORVAL, Model RT6000D, using the rotor for 50 mL tubes). The supernatant is discarded and the cells suspended in homogenizing buffer (10 mM Tris-HCl containing 0.25 M sucrose and 1 mM EDTA, pH 7.4) ensuring that the volume of the buffer is about ten times the volume of the cell pellet. The cells are pooled into a centrifuge tube (50 mL) and homogenized with a Polytron at setting 6 for 10 sec. The homogenate is transferred into a Potter-Elvjehm homogenizer and homogenized with 3 strokes. The homogenate is centrifuged at 1500×g for 60 min at 4° C. (3100 rpm using SORVAL, model RT6000D, using the rotor for 50 mL tubes). The pellet is discarded. The supernatant is centrifuged at 100,000×g for 60 min. at 4° C. (Beckman L8-80M ultracentrifuge; spin at 37,500 rpm with rotor type 70 Ti for 50 mL tubes; 38,000 rpm with type 80Ti for 15 mL tubes; or 35,800 rpm with rotor type 45Ti). The supernantant is discarded and the pellet suspended in 3 to 4 mL of Tris buffer (50 mM TRIS-HCl, pH 7.4). The protein content is estimated by the Bradford or Lowry method. The volume of the membrane suspension is adjusted with the membrane buffer (50 mM Tris-HCl containing 0.1% BSA and 0.1 mM PMSF) to give 3.0 mg/mL (or as appropriate) of protein. The membranes are aliquoted and stored at −70° C. C. Radioligand Binding Assay: In wells of a 96-well format microtiter plate, is added 90, 110 or 130 μL (to make up a final volume of 200 μL) of assay buffer containing 50 mM of Tris-HCl (pH 7.4), […], 1 mg % aprotinin, 1 mg % leupeptin, 2 mg % 1,10-phenanthroline, 10 mg % trypsin inhibitor, and 0.1 mM PMSF. The inhibitors are added on the day of the experiment. The components are mixed at room temperature, and then kept in ice bath following adjustment of the pH to 7.4. […] For vasopressin and other peptide ligands 20 μL of 50% DMSO is added and the assay buffer volume is adjusted accordingly. To each well is added 50 μL of frozen membrane suspension thawed immediately prior to use and diluted in assay buffer to the required concentration (equivalent to 25 to 50 μg of protein/well as needed). 20 μL of 8 nM [^3H]arginine vasopressin ligand in the assay buffer, prepared just before use is added and incubated at room temperature for 60 min. shaking the plate on a mechanical shaker for the first 15 min. The incubation is stopped by rapid filtration of the plate contents followed by wash with ice-cold buffer (50 mM Tris-HCl, pH 7.4) using a cell harvester (Tomtek and Printed filtermat-B filter paper). The filter paper is thoroughly dried (7–12 min. in a microwave oven) and impregnated with MeltiLex B/H melt-on scintillation wax sheets and the radioactivity counted in a betaplate scintillation counter.

T1 sequence (P30518 whole entry): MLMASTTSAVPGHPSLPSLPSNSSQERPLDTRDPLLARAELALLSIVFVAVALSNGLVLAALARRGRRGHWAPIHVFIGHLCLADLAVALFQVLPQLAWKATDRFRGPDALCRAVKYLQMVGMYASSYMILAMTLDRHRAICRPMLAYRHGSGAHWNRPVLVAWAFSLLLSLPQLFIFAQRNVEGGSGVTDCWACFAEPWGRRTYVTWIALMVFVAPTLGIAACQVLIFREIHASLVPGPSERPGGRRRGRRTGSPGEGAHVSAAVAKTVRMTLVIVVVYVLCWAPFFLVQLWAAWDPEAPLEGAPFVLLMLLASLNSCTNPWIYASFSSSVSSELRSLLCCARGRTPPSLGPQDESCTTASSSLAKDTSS

SMILES | V2 % inhibition @ 100 nM | inhibition at 0.1 µM
Cc1cccc(N2CCN(C(=O)c3ccc4n3Cc3ccccc3N(C(=O)c3ccc(-c5ccccc5C(F)(F)F)c(C)c3)C4)CC2C)c1 (stereo not shown) [Example 5, [3-Methyl-4-(3-methyl-phenyl)-piperazin-1-yl]-[10-(2-methyl-2′-trifluoromethyl-[1,1′-biphenyl]-4-yl)carbonyl]-10,11-dihydro-5H-pyrrolo[2,1-c][1,4]benzodiazepin-3-yl-methanone] | 3% | –
COc1cc2c(cc1OC)N(C(=O)c1ccc(-c3ccccc3C(F)(F)F)c(C)c1)Cc1ccc(C(=O)N(C)CCCN(C)C)n1C2.Cl [Example 13, N-Methyl-[N-(3-dimethylamino)propyl]-7,8-dimethoxy-10-{[2-methyl-2′-(trifluoromethyl)[1,1′-biphenyl]-4-yl]carbonyl}-10,11-dihydro-5H-pyrrolo[2,1-c][1,4]benzodiazepine-3-carboxamide hydrochloride salt] | −4% | –
COc1cc2c(cc1OC)N(C(=O)c1ccc(-c3ccccc3C(F)(F)F)c(C)c1)Cc1ccc(C(=O)N3CCC(=O)CC3)n1C2 [Example 14, 7,8-Dimethoxy-10-{[2-methyl-2′-(trifluoromethyl)-[1,1′-biphenyl]-4-yl]carbonyl}-[(10,11-dihydro-5H-pyrrolo[2,1-c][1,4]benzodiazepin-3-yl)carbonyl]-4-piperidinone] | −3% | –
COC(=O)c1ccc2c(c1)N(C(=O)c1ccc(-c3ccccc3C(F)(F)F)c(C)c1)Cc1cccn1C2 [Example 26, Methyl 10-{[2-methyl-2′-trifluoromethyl-[1,1′-biphenyl]-4-yl]carbonyl}-10,11-dihydro-5H-pyrrolo[2,1-c][1.4]benzodiazepine-8-carboxylate] | 3% | –
COc1cc(C(=O)N2Cc3ccc(C(=O)N4CCC[C@H]4CN4CCCC4)n3Cc3ccccc32)ccc1-c1ccccc1Cl [Example 33, {[10-(2-Methoxy)-2′-chloro-[1,1′-biphenyl]-4-yl]carbonyl}-[(2S)-[(2-pyrrolidin-1-yl)methyl]pyrrolidin-1-yl]-10,11-dihydro-5H-pyrrolo[2,1-c][1,4]benzodiazepin-3-yl-methanone] | 11% | –
Cc1cc(C(=O)N2Cc3ccc(C(=O)NCCCN(C)C)n3Cc3ccccc32)ccc1-c1ccccc1C(F)(F)F [Example 84, N-[3-(Dimethylamino)propyl]-10-{[2-methyl-2′-(trifluoromethyl)[1,1′-biphenyl]-4-yl]carbonyl}-10,11-dihydro-5H-pyrrolo[2,1-c][1 .4]benzodiazepine-3-carboxamide] | 11% | –
COc1ccccc1-c1ccc(C(=O)N2Cc3ccc(C(=O)N(C)CCCN(C)C)n3Cc3ccccc32)cc1OC [Example 107, 10-[(2,2′-Dimethoxy[1,1′-biphenyl]-4-yl)carbonyl]-N-[3-(dimethylamino)propyl]-N-methyl-10,11-dihydro-5H-pyrrolo[2,1-c][1,4]benzodiazepine-3-carboxamide] | – | 19%
COc1cccc(-c2ccc(C(=O)N3Cc4ccc(C(=O)N(C)CCCN(C)C)n4Cc4ccccc43)cc2OC)c1 [Example 108, 10-[(2,3′-Dimethoxy[1,1′-biphenyl]-4-yl)carbonyl]-N-[3-(dimethylamino)propyl]-N-methyl-10,11-dihydro-5H-pyrrolo[2,1-c][1,4]benzodiazepine-3-carboxamide] | – | 8%
CN(C)CCCN(C)C(=O)c1ccc2n1Cc1ccccc1N(C(=O)c1ccc(-c3cccc4ccccc34)cc1Cl)C2 [Example 109, 10-[2-Chloro-4-(1-naphthyl)benzoyl]-N-[3-(dimethylamino)propyl]-N-methyl-10,11-dihydro-5H-pyrrolo[2,1-c][1,4]benzodiazepine-3-carboxamide] | – | 14%
COc1ccccc1-c1ccc(C(=O)N2Cc3ccc(C(=O)N4CCC(N5CCCCC5)CC4)n3Cc3ccccc32)cc1C [Example 112, {10-[(2-Methyl-2′-methoxy[1,1′-biphenyl]-4-yl)carbonyl]-10,11-dihydro-5H-pyrrolo[2,1-c][1,4]benzodiazepin-3-yl}[4-(1-piperidinyl)-1-piperidinyl]methanone] | – | 32%
Cc1ccccc1-c1ccc(C(=O)N2Cc3ccc(C(=O)N4CCC(N5CCCCC5)CC4)n3Cc3ccccc32)cc1C [Example 113, {10-[(2-Methyl-2′-methyl[1,1′-biphenyl]-4-yl)carbonyl]-10,11-dihydro-5H-pyrrolo[2,1-c][1,4]benzodiazepin-3-yl}[4-(1-piperidinyl)-1-piperidinyl]methanone] | – | 9%
COc1cccc(-c2ccc(C(=O)N3Cc4ccc(C(=O)N5CCC(N6CCCCC6)CC5)n4Cc4ccccc43)cc2C)c1 [Example 114, {10-[(2-Methyl-3′-methoxy[1,1′-biphenyl]-4-yl)carbonyl]-10,11-dihydro-5H-pyrrolo[2,1-c][1,4]benzodiazepin-3-yl}[4-(1-piperidinyl)-1-piperidinyl]methanone] | – | 22%
Cc1ccccc1-c1ccc(C(=O)N2Cc3ccc(C(=O)N4CCC(N5CCCCC5)CC4)n3Cc3ccccc32)cc1 [Example 115, {10-[(2′-Methyl[1,1′-biphenyl]-4-yl)carbonyl]-10,11-dihydro-5H-pyrrolo[2,1-c][1,4]benzodiazepin-3-yl}[4-(1-piperidinyl)-1-piperidinyl]methanone] | – | 12%
COc1cc(C(=O)N2Cc3ccc(C(=O)N4CCC(N5CCCCC5)CC4)n3Cc3ccccc32)ccc1-c1ccccc1C [Example 116, {10-[(2-Methoxy-2′-methyl[1,1′-biphenyl]-4-yl)carbonyl]-10,11-dihydro-5H-pyrrolo[2,1-c][1,4]benzodiazepin-3-yl}[4-(1-piperidinyl)-1-piperidinyl]methanone] | – | 22%
COc1cccc(-c2cc(OC)c(C(=O)N3Cc4ccc(C(=O)N5CCC(N6CCCCC6)CC5)n4Cc4ccccc43)cc2Cl)c1 [Example 117, {10-[(6-Chloro-3-methoxy-3′-methoxy[1,1′-biphenyl]-4-yl)carbonyl]-10,11-dihydro-5H-pyrrolo[2,1-c][1,4]benzodiazepin-3-yl}[4-(1-piperidinyl)-1-piperidinyl]methanone] | – | 14%
COc1cc(C(=O)N2Cc3ccc(C(=O)N4CCC(N5CCCCC5)CC4)n3Cc3ccccc32)ccc1-c1cccc2ccccc12 [Example 118, {10-[3-Methoxy-4-(1-naphthyl)-benzoyl]-10,11-dihydro-5H-pyrrolo[2,1-c][1,4]benzodiazepin-3-yl}[4-(1-piperidinyl)-1-piperidinyl]methanone] | – | 39%
COc1ccccc1-c1ccc(C(=O)N2Cc3ccc(C(=O)N4CCC(N5CCCCC5)CC4)n3Cc3ccccc32)cc1OC [Example 119, {10-[(2,2′-Dimethoxy-[1,1′-biphenyl]-4-yl)carbonyl]-10,11-dihydro-5H-pyrrolo[2,1-c][1,4]benzodiazepin-3-yl}[4-(1-piperidinyl)-1-piperidinyl]methanone] | – | 15%
COc1cccc(-c2ccc(C(=O)N3Cc4ccc(C(=O)N5CCC(N6CCCCC6)CC5)n4Cc4ccccc43)cc2OC)c1 [Example 120, {10-[(2,3′-Dimethoxy-[1,1′-biphenyl]-4-yl)carbonyl]-10,11-dihydro-5H-pyrrolo[2,1-c][1,4]benzodiazepin-3-yl}[4-(1-piperidinyl)-1-piperidinyl]methanone] | – | 6%
O=C(c1ccc2n1Cc1ccccc1N(C(=O)c1ccc(-c3cccc4ccccc34)cc1Cl)C2)N1CCC(N2CCCCC2)CC1 [Example 121] | 13% | –
